Activity calls are given as the source filed them. For most assays here, no stated cut-off is given here; in the data, actives have a measured IC50 and inactives only a lower limit.
How the values were obtained:
[1] = biological target: T1, Sentrin-specific protease 6 (Homo sapiens, UniProt Q9GZR1); test: SAR Analysis of small molecule inhibitors of Sentrin-specific protease 6 (SENP6) using a Luminescent assay. [Related pubchem assays (depositor defined):AID2582, AID2599]; type: functional
T1 sequence (Q9GZR1 whole entry): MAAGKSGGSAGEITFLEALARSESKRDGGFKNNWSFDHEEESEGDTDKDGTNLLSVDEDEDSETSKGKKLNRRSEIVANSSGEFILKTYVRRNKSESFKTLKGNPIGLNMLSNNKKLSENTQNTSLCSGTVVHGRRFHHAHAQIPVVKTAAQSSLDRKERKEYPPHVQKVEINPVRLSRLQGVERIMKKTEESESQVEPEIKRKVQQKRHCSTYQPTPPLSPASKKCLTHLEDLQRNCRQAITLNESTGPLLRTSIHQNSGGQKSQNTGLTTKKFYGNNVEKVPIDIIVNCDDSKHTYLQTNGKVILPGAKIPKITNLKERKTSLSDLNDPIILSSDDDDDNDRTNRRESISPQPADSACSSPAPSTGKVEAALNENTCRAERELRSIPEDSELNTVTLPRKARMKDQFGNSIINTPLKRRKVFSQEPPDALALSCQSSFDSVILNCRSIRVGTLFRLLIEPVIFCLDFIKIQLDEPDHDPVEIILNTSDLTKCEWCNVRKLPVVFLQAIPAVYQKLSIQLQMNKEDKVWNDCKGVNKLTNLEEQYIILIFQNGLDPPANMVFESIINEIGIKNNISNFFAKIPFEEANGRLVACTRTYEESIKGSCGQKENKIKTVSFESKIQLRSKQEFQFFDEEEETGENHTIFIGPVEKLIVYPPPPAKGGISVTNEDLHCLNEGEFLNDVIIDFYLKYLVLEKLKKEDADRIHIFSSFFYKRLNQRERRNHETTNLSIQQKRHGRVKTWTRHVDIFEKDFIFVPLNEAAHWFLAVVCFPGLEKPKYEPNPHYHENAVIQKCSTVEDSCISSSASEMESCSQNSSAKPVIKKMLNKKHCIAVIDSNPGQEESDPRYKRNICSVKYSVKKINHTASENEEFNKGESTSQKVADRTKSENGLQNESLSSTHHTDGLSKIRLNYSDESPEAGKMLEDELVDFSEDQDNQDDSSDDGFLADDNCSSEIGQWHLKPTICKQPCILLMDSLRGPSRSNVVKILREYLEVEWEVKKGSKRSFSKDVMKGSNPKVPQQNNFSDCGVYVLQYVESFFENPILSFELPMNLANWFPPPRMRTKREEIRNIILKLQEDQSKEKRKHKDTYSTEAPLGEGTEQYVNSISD

Caspase-3 [2] = biological target: T2, Caspase-3 (Homo sapiens, UniProt P42574); test: SAR Analysis of small molecule inhibitors of Sentrin-specific proteases (SENPs) using a Caspase-3 Selectivity assay. [Related pubchem assays (depositor defined):AID2540, AID2599, AID434973, AID489001]; type: functional
T2 sequence (P42574 whole entry): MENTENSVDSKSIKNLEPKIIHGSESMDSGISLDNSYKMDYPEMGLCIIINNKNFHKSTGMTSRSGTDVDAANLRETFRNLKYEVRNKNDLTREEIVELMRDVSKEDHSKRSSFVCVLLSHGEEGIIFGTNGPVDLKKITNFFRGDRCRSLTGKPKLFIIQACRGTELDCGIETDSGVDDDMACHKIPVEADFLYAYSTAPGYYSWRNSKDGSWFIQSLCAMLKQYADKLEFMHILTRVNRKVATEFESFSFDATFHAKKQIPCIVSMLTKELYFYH

[3] = biological target: T3, Sentrin-specific protease 7 (Homo sapiens, UniProt Q9BQF6); test: inhibition of human SENP7 cleavage activity – biochemical, luminescence, SAR follow-up (AID 504497); type: functional
T3 sequence (Q9BQF6 whole entry): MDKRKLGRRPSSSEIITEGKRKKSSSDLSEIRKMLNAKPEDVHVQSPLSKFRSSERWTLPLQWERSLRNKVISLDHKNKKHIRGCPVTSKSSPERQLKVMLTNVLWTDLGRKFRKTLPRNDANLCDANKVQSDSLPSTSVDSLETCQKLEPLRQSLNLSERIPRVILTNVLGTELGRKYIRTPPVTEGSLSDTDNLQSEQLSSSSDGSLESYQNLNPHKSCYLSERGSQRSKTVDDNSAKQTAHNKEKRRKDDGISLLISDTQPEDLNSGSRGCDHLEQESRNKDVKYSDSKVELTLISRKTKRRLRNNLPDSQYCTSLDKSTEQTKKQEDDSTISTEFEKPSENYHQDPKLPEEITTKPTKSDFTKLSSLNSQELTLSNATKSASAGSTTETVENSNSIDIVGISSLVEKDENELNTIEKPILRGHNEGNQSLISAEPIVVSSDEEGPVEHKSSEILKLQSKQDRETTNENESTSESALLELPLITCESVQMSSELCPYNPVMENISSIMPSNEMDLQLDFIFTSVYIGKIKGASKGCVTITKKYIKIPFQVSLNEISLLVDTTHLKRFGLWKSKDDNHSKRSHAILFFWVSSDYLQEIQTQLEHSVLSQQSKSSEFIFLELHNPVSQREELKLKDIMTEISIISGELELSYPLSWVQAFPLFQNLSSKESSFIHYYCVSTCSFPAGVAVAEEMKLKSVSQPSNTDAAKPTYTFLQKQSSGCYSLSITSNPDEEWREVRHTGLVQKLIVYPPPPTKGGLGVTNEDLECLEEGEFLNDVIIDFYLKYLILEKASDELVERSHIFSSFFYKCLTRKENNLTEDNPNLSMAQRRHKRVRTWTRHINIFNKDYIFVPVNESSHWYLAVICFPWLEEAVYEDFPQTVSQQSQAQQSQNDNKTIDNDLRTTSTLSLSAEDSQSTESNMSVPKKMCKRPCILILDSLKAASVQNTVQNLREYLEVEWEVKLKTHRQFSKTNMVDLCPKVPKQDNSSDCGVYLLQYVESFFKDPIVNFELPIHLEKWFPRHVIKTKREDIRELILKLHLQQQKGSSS

[4] = biological target: T4, Sentrin-specific protease 8 (Homo sapiens, UniProt Q96LD8); test: inhibition of human SENP8 cleavage activity – biochemical, luminescence, SAR follow-up (AID 504501); type: functional
T4 sequence (Q96LD8 whole entry): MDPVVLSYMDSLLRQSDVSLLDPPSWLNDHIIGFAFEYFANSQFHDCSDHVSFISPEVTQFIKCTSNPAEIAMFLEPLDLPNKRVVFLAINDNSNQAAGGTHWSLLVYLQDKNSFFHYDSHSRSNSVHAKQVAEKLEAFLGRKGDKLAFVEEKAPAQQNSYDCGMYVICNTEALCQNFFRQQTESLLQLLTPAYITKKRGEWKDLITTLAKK

[5] = biological target: T3, Sentrin-specific protease 7; type: functional
Caspase-3 [6] = biological target: T2, Caspase-3; type: functional
cells [7] = type: functional, cell-based
[8] = biological target: T1, Sentrin-specific protease 6; type: functional
cells [9] = type: functional, cell-based; remark: listed apart in the source
[10] = biological target: Heat shock protein HSP 90-alpha (Homo sapiens, UniProt P07900); type: functional, organism-based
[11] = biological target: T4, Sentrin-specific protease 8; type: functional

| IC50 [1] | IC50 (Caspase-3 [2]) | IC50 [3] | Compound | IC50 [4] | IC50 [5] | IC50 (Caspase-3 [6]) | EC50 (cells [7]) | IC50 [8] | EC50 (cells [9]) | AC50 [10] | IC50 [11] |
| --- | --- | --- | --- | --- | --- | --- | --- | --- | --- | --- | --- |
| 65.1 µM (active) | > 99 µM (inactive) | 32 µM (active) | CCC(=O)c1ccc(OCC(=O)N(c2ccccc2)c2nc(-c3ccccc3)ns2)cc1 | 96.7 µM (active) | – | – | – | – | – | – | – |
| – | – | – | CCCCNc1nc(N)nc(-c2cc(Cl)ccc2O)n1 | – | 4.54 µM (active) | 44.1 µM (active) | > 350 µM (not active) | > 100 µM (inactive) | 3.49 µM (active) | 4.87 µM (active) | > 100 µM (inactive) |
